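These data come from cells grown in 96-well plates and exposed to compound for 48 hours at five concentrations. GI50: concentration for 50% inhibition of growth.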 The source made the active and inactive calls. Rule as the data show it: active = GI50 up to about 1.1 µM and inactive = higher.
Assays:
Test in all cases: growth of human tumour cells (NCI), 48 h
786-0 = tested on: 786-0
A549 = tested on: A549
ACHN = tested on: ACHN
BT-549 = tested on: BT-549
CAKI-1 = tested on: CAKI-1
DU-145 = tested on: DU-145
EKVX = tested on: EKVX
HCC 2998 = tested on: HCC 2998
HCT-15 = tested on: HCT-15
HOP-62 = tested on: HOP-62
HT-29 = tested on: HT-29
Hs-578T = tested on: Hs-578T
K562 = tested on: K562
MCF7 = tested on: MCF7
MDA-MB-231 = tested on: MDA-MB-231
MDA-MB-435 = tested on: MDA-MB-435
MDA-N = tested on: MDA-N
MOLT-4 = tested on: MOLT-4
NCI-H23 = tested on: NCI-H23
NCI-H460 = tested on: NCI-H460
NCI/ADR-RES = tested on: NCI/ADR-RES
OVCAR-3 = tested on: OVCAR-3
OVCAR-4 = tested on: OVCAR-4
OVCAR-5 = tested on: OVCAR-5
PC-3 = tested on: PC-3
RXF 393 = tested on: RXF 393
SF-268 = tested on: SF-268
SF-295 = tested on: SF-295
SF-539 = tested on: SF-539
SK-MEL-28 = tested on: SK-MEL-28
SK-MEL-2 = tested on: SK-MEL-2
SK-OV-3 = tested on: SK-OV-3
SN12C = tested on: SN12C
SW-620 = tested on: SW-620
U-251 = tested on: U-251
UACC-257 = tested on: UACC-257
UO-31 = tested on: UO-31
A498 = tested on: A498
CCRF-CEM = tested on: CCRF-CEM
COLO 205 = tested on: COLO 205
HCT-116 = tested on: HCT-116
HL-60 = tested on: HL-60
HOP-92 = tested on: HOP-92
IGROV-1 = tested on: IGROV-1
KM12 = tested on: KM12
LOX IMVI = tested on: LOX IMVI
M14 = tested on: M14
Malme-3M = tested on: Malme-3M
NCI-H522 = tested on: NCI-H522
OVCAR-8 = tested on: OVCAR-8
RPMI-8226 = tested on: RPMI-8226
SK-MEL-5 = tested on: SK-MEL-5
SR = tested on: SR
T47D = tested on: T47D
UACC-62 = tested on: UACC-62
NCI-H226 = tested on: NCI-H226
SNB-19 = tested on: SNB-19
SNB-75 = tested on: SNB-75
TK-10 = tested on: TK-10

For `NC(CCC(=O)NC(CSC(=O)N(O)c1ccc(Br)cc1)C(=O)NCC(=O)O)C(=O)O` (stereo not drawn), the GI50 (786-0) was > 50 µM (inactive), the GI50 (A549) was > 50 µM (inactive) and the GI50 (ACHN) was > 50 µM (inactive). The GI50 (BT-549) was > 50 µM (inactive), the GI50 (CAKI-1) was > 50 µM (inactive) and the GI50 (DU-145) was > 50 µM (inactive). For the same molecule, the GI50 (EKVX) was > 50 µM (inactive), the GI50 (HCC 2998) was > 50 µM (inactive) and the GI50 (HCT-15) was over 50 µM. The GI50 (HOP-62) was > 50 µM (inactive), the GI50 (HT-29) was > 50 µM (inactive) and the GI50 (Hs-578T) was 27.4 µM (inactive). For the same molecule, the GI50 (K562) was > 50 µM (inactive), the GI50 (MCF7) was > 50 µM (inactive) and the GI50 (MDA-MB-231) was > 50 µM (inactive). The GI50 (MDA-MB-435) was > 50 µM (inactive), the GI50 (MDA-N) was > 50 µM (inactive) and the GI50 (MOLT-4) was > 50 µM (inactive). For the same molecule, the GI50 (NCI-H23) was > 50 µM (inactive), the GI50 (NCI-H460) was > 50 µM (inactive) and the GI50 (NCI/ADR-RES) was > 50 µM (inactive). For the same molecule, the GI50 (OVCAR-3) was > 50 µM (inactive), the GI50 (OVCAR-4) was > 50 µM (inactive) and the GI50 (OVCAR-5) was > 50 µM (inactive). The GI50 (PC-3) was > 50 µM (inactive), the GI50 (RXF 393) was > 50 µM (inactive) and the GI50 (SF-268) was > 50 µM (inactive). For the same molecule, the GI50 (SF-295) was > 50 µM (inactive), the GI50 (SF-539) was > 50 µM (inactive) and the GI50 (SK-MEL-28) was > 50 µM (inactive). The GI50 (SK-MEL-2) was > 50 µM (inactive), the GI50 (SK-OV-3) was > 50 µM (inactive) and the GI50 (SN12C) was > 50 µM (inactive). For the same molecule, the GI50 (SW-620) was > 50 µM (inactive), the GI50 (U-251) was > 50 µM (inactive) and the GI50 (UACC-257) was > 50 µM (inactive). For the same molecule, the GI50 (UO-31) was > 50 µM (inactive).
With `CC[C@@H](O)C[C@H]1CCC[C@@]2(C[C@@H]3OC(=O)/C=C/[C@@](C)(O)[C@@H](O)[C@H](C)[C@@H](O)[C@H](OC4CCC(N(C)C)C(C)O4)[C@@H](O)[C@](C)(O)CCCCC/C=C/[C@@H]4CC(C)(C)O[C@@]4(O)C[C@H](O2)[C@H]3C)O1` (stereo partly drawn) the GI50 (786-0) was 11.3 µM (inactive), the GI50 (A498) was 19.9 µM (inactive) and the GI50 (A549) was < 0.01 µM (active). The GI50 (ACHN) was < 0.01 µM (active), the GI50 (BT-549) was 12.6 µM (inactive) and the GI50 (CAKI-1) was 3.61 µM (inactive). The GI50 (CCRF-CEM) was 15.9 µM (inactive), the GI50 (COLO 205) was < 0.01 µM (active) and the GI50 (DU-145) was 11.3 µM (inactive). The GI50 (EKVX) was < 0.01 µM (active), the GI50 (HCC 2998) was 2.4 µM (inactive) and the GI50 (HCT-116) was 1.54 µM (inactive). For the same molecule, the GI50 (HCT-15) was 11.5 µM, the GI50 (HL-60) was 3.75 µM (inactive) and the GI50 (HOP-62) was 13.4 µM (inactive). For the same molecule, the GI50 (HOP-92) was 13.7 µM (inactive), the GI50 (HT-29) was 3.49 µM (inactive) and the GI50 (Hs-578T) was 12.8 µM (inactive). The GI50 (IGROV-1) was 6.44 µM (inactive), the GI50 (K562) was < 0.01 µM (active) and the GI50 (KM12) was 0.34 µM (active). The GI50 (LOX IMVI) was 1.82 µM (inactive), the GI50 (M14) was 1.85 µM (inactive) and the GI50 (MCF7) was < 0.01 µM (active). The GI50 (MDA-MB-231) was 17.5 µM (inactive), the GI50 (MDA-MB-435) was 0.927 µM (active) and the GI50 (MDA-N) was 2.96 µM (inactive). The GI50 (MOLT-4) was 1.91 µM (inactive), the GI50 (Malme-3M) was 1.56 µM (inactive) and the GI50 (NCI-H23) was < 0.01 µM (active). The GI50 (NCI-H460) was 4.23 µM (inactive), the GI50 (NCI-H522) was < 0.01 µM (active) and the GI50 (OVCAR-3) was 12.9 µM (inactive). The GI50 (OVCAR-4) was 5.2 µM (inactive), the GI50 (OVCAR-5) was 14.8 µM (inactive) and the GI50 (OVCAR-8) was < 0.01 µM (active). The GI50 (RPMI-8226) was < 0.01 µM (active), the GI50 (RXF 393) was 14.7 µM (inactive) and the GI50 (SF-268) was 15.7 µM (inactive). The GI50 (SF-295) was < 0.01 µM (active), the GI50 (SF-539) was 10.9 µM (inactive) and the GI50 (SK-MEL-28) was 15.8 µM (inactive). For the same molecule, the GI50 (SK-MEL-2) was 10.5 µM (inactive), the GI50 (SK-MEL-5) was < 0.01 µM (active) and the GI50 (SK-OV-3) was 14.6 µM (inactive). For the same molecule, the GI50 (SN12C) was 16.4 µM (inactive), the GI50 (SR) was 1.06 µM (active) and the GI50 (SW-620) was 16.6 µM (inactive). The GI50 (T47D) was < 0.01 µM (active), the GI50 (U-251) was < 0.01 µM (active) and the GI50 (UACC-257) was < 0.01 µM (active). For the same molecule, the GI50 (UACC-62) was 6.37 µM (inactive) and the GI50 (UO-31) was < 0.0388 µM (active).
In the case of `COc1ccc(CCN2CCc3c(C)c(C#N)c4nc5ccccc5n4c32)cc1OC`, the GI50 (786-0) is reported as 56.8 µM (inactive), the GI50 (A498) is reported as 54.6 µM (inactive) and the GI50 (A549) is reported as 45.9 µM (inactive). The GI50 (ACHN) was 64.6 µM (inactive), the GI50 (BT-549) was 27.2 µM (inactive) and the GI50 (CAKI-1) was > 100 µM (inactive). The GI50 (CCRF-CEM) was 35.4 µM (inactive), the GI50 (COLO 205) was 30.3 µM (inactive) and the GI50 (DU-145) was 81.7 µM (inactive). The GI50 (HCC 2998) was 40.7 µM (inactive), the GI50 (HCT-116) was 28.7 µM (inactive) and the GI50 (HCT-15) was 29 µM. The GI50 (HL-60) was 33.9 µM (inactive), the GI50 (HOP-62) was 33.7 µM (inactive) and the GI50 (HOP-92) was 22.8 µM (inactive). The GI50 (HT-29) was 32.6 µM (inactive), the GI50 (Hs-578T) was 12.9 µM (inactive) and the GI50 (IGROV-1) was 37.2 µM (inactive). For the same molecule, the GI50 (K562) was 15.6 µM (inactive), the GI50 (LOX IMVI) was 37.7 µM (inactive) and the GI50 (M14) was > 100 µM (inactive). The GI50 (MCF7) was 18 µM (inactive), the GI50 (MDA-MB-231) was 19.1 µM (inactive) and the GI50 (MDA-MB-435) was 14.3 µM (inactive). The GI50 (MDA-N) was 19.1 µM (inactive), the GI50 (Malme-3M) was 28.7 µM (inactive) and the GI50 (NCI-H226) was 27.5 µM (inactive). The GI50 (NCI-H23) was 45.3 µM (inactive), the GI50 (NCI-H460) was 20.2 µM (inactive) and the GI50 (NCI-H522) was 21.4 µM (inactive). The GI50 (NCI/ADR-RES) was 27.4 µM (inactive), the GI50 (OVCAR-3) was 27.2 µM (inactive) and the GI50 (OVCAR-4) was 26 µM (inactive). The GI50 (OVCAR-5) was > 100 µM (inactive), the GI50 (OVCAR-8) was 35.3 µM (inactive) and the GI50 (PC-3) was 25.9 µM (inactive). For the same molecule, the GI50 (RXF 393) was 30.8 µM (inactive), the GI50 (SF-268) was 35.1 µM (inactive) and the GI50 (SF-295) was 42.4 µM (inactive). For the same molecule, the GI50 (SF-539) was 49.9 µM (inactive), the GI50 (SK-MEL-28) was 39.5 µM (inactive) and the GI50 (SK-MEL-2) was 16.3 µM (inactive). The GI50 (SK-MEL-5) was 19.6 µM (inactive), the GI50 (SK-OV-3) was 81.3 µM (inactive) and the GI50 (SN12C) was 34.2 µM (inactive). For the same molecule, the GI50 (SNB-19) was > 100 µM (inactive), the GI50 (SNB-75) was 24.8 µM (inactive) and the GI50 (SW-620) was 26.6 µM (inactive). For the same molecule, the GI50 (TK-10) was 64.1 µM (inactive), the GI50 (U-251) was 15.6 µM (inactive) and the GI50 (UACC-257) was 33.2 µM (inactive). The GI50 (UACC-62) was 24.2 µM (inactive) and the GI50 (UO-31) was 36.3 µM (inactive).

— ChEMBL document CHEMBL1201862, “PubChem BioAssay data set” (2004)
